The numbers were not newly measured in patent US20220331279A1, “THERAPEUTIC METHODS AND COMPOSITIONS FOR TREATING CANCER USING 6,8-BIS-BENZYLTHIO-OCTANOIC ACID AND A GLUTAMINASE INHIBITOR” (Rafael Pharmaceuticals, lnc., priority 2019, published 2022), which cites them from elsewhere.

For the series the following is noted: after IV dosing; Pardee, T. S. et al., Clin. Cancer Res. 2014, 20, 5255-64.

For the compound `O=C(O)CCCCC(CCSCc1ccccc1)SCc1ccccc1` (stereo not shown) [6,8-bis-benzylthio-octanoic acid], the half-life is 1 to 2 h.
